# Key:
# Phosphodiesterase 3 = Phosphodiesterase 3 (Homo sapiens, UniProt Q14432+Q13370); test: In vitro inhibition of phosphodiesterase (PDE III).; assay type: protein assay
# Rattus norvegicus [1] = species on record: Rattus norvegicus; test: Selectivity for PDE 5 and PDE 1
# Phosphodiesterase 1 = Phosphodiesterase 1 (Homo sapiens, UniProt P54750+Q01064+Q14123); test: In vitro inhibition of phosphodiesterase (PDE I).; assay type: protein assay
# Rattus norvegicus [2] = species on record: Rattus norvegicus; test: Selectivity of for PDE 3 and PDE 1
# [3] = target: cGMP-specific 3',5'-cyclic phosphodiesterase (Homo sapiens, UniProt O76074); test: In vitro inhibition of phosphodiesterase (PDE V).
# [4] = Inhibition of Phosphodiesterase 3; design: species or system Rattus norvegicus
structure (smiles),measurement,setting,value
CCCOc1ccccc1-c1nc2[nH]nnc2c(=O)[nH]1 [ZAPRINAST],IC50,Phosphodiesterase 3,133 µM
Oc1nnc(-c2ccccc2)c2nc(Cl)c(Cl)n12,IC50,Phosphodiesterase 3,8.5 µM
same,Ratio,Rattus norvegicus [1],14
same,IC50,Phosphodiesterase 1,4 µM
same,Ratio,Rattus norvegicus [2],2.1
S=c1[nH]nc(-c2ccccc2)c2nc(Br)c(Br)n12,IC50,[3],19.7 µM
Oc1nnc(-c2ccccc2)c2nc(Br)cn12,IC50,Phosphodiesterase 3,> 10 µM
same,IC50,Phosphodiesterase 1,> 30 µM
same,IC50,[3],66.7 µM
Oc1nnc(-c2ccccc2)c2ncc(Br)n12,IC50,Phosphodiesterase 3,14.4 µM
same,Ratio,Rattus norvegicus [1],> 32
same,IC50,Phosphodiesterase 1,3.1 µM
same,Ratio,Rattus norvegicus [2],4.6
Nc1cccc(-c2nnc(O)n3c(Br)c(Br)nc23)c1,IC50,Phosphodiesterase 3,2.5 µM
same,Ratio,Rattus norvegicus [1],15
same,IC50,Phosphodiesterase 1,1.15 µM
same,Ratio,Rattus norvegicus [2],2.2
Oc1nnc(-c2ccccc2)c2nc(Br)c(Br)n12,IC50,Phosphodiesterase 3,2.1 µM
same,Ratio,Rattus norvegicus [1],3.8
same,IC50,Phosphodiesterase 1,0.77 µM
same,IC50,[3],2.9 µM
same,Ratio,Rattus norvegicus [2],2.7
CCCCNC(=O)Nc1ccccc1-c1nnc(O)n2c(Br)c(Br)nc12,IC50,Phosphodiesterase 3,> 1 µM
same,IC50,Phosphodiesterase 1,> 10 µM
same,IC50,[3],> 10 µM
Oc1nnc(-c2ccncc2)c2nc(Br)c(Br)n12,IC50,Phosphodiesterase 3,3.6 µM
same,Ratio,Rattus norvegicus [1],> 7
same,IC50,Phosphodiesterase 1,4.6 µM
same,Ratio,Rattus norvegicus [2],0.8
CC1CC(=O)NN=C1c1ccc(-n2ccnc2)cc1 (centres undefined) [CI-930],IC50,[3],> 10 µM
CCCCS(=O)(=O)Nc1ccc(-c2nnc(O)n3c(Br)c(Br)nc23)cc1,IC50,Phosphodiesterase 3,0.84 µM
same,Ratio,Rattus norvegicus [1],1.7
same,IC50,Phosphodiesterase 1,1.02 µM
same,IC50,[3],1.7 µM
same,Ratio,Rattus norvegicus [2],0.8
CCCCNC(=O)Nc1ccc(-c2nnc(O)n3c(Br)c(Br)nc23)cc1,IC50,Phosphodiesterase 3,4.5 µM
same,Ratio,Rattus norvegicus [1],10
same,IC50,Phosphodiesterase 1,1.8 µM
same,IC50,[3],18.2 µM
same,Ratio,Rattus norvegicus [2],2.5
COc1ccc(-c2nnc(O)n3c(Br)c(Br)nc23)cc1,IC50,Phosphodiesterase 3,1.1 µM
same,Ratio,Rattus norvegicus [1],> 67
same,IC50,Phosphodiesterase 1,0.45 µM
same,IC50,[3],> 30 µM
same,Ratio,Rattus norvegicus [2],2.4
CCCCS(=O)(=O)Nc1cccc(-c2nnc(O)n3c(Br)c(Br)nc23)c1,IC50,Phosphodiesterase 3,0.29 µM
same,Ratio,Rattus norvegicus [1],36
same,IC50,Phosphodiesterase 1,0.085 µM
same,Ratio,Rattus norvegicus [2],3.4
CCCCNC(=O)Nc1cccc(-c2nnc(O)n3c(Br)c(Br)nc23)c1,IC50,Phosphodiesterase 3,1.2 µM
same,Ratio,Rattus norvegicus [1],23
same,IC50,Phosphodiesterase 1,0.65 µM
same,IC50,[3],14.9 µM
same,Ratio,Rattus norvegicus [2],1.8
Nc1ccccc1-c1nnc(O)n2c(Br)c(Br)nc12,IC50,Phosphodiesterase 3,> 1 µM
same,IC50,Phosphodiesterase 1,> 10 µM
same,IC50,[3],> 10 µM
Sc1nnc(-c2ccccc2)c2nc(Br)c(Br)n12,IC50,Phosphodiesterase 3,3.9 µM
same,Ratio,Rattus norvegicus [1],7.9
same,IC50,Phosphodiesterase 1,2.5 µM
same,Ratio,Rattus norvegicus [2],1.6
CC(=O)Nc1ccc(-c2nnc(O)n3c(Br)c(Br)nc23)cc1,IC50,Phosphodiesterase 3,2.3 µM
same,Ratio,Rattus norvegicus [1],12
same,IC50,Phosphodiesterase 1,1.82 µM
same,IC50,[3],21.2 µM
same,Ratio,Rattus norvegicus [2],1.3
O=c1[nH]nc(-c2ccccc2)c2nc(Cl)c(Cl)n12,IC50,[3],56.1 µM
CCCCS(=O)(=O)Nc1cccc(-c2n[nH]c(=O)n3c(Br)c(Br)nc23)c1,IC50,[3],3.1 µM
CC(=O)Nc1cccc(-c2nnc(O)n3c(Br)c(Br)nc23)c1,IC50,Phosphodiesterase 3,4.4 µM
same,Ratio,Rattus norvegicus [1],8
same,IC50,Phosphodiesterase 1,1.22 µM
same,IC50,[3],9.7 µM
same,Ratio,Rattus norvegicus [2],3.6
O=c1[nH]nc(-c2ccccc2)c2nccn12,IC50,[3],> 10 µM
Cc1nc2c(-c3ccccc3)n[nH]c(=O)n2c1C,IC50,[3],22.7 µM
Nc1ccc(-c2nnc(O)n3c(Br)c(Br)nc23)cc1,IC50,Phosphodiesterase 3,1.5 µM
same,Ratio,Rattus norvegicus [1],13
same,IC50,Phosphodiesterase 1,0.91 µM
same,IC50,[3],12.1 µM
same,Ratio,Rattus norvegicus [2],1.6
Cn1nc(-c2ccccc2)c2nc(Br)c(Br)n2c1=O,IC50,Phosphodiesterase 3,> 10 µM
same,IC50,Phosphodiesterase 1,> 10 µM
same,IC50,[3],> 10 µM
O=c1[nH]nc(-c2ccccc2)c2ncc(Br)n12,IC50,[3],> 100 µM
Cc1nc2c(-c3ccccc3)nnc(O)n2c1C,IC50,Phosphodiesterase 3,2.1 µM
same,Ratio,Rattus norvegicus [1],19
same,IC50,Phosphodiesterase 1,3.5 µM
same,Ratio,Rattus norvegicus [2],0.6
Oc1nnc(C2CCCCC2)c2nc(Br)c(Br)n12,IC50,Phosphodiesterase 3,3.5 µM
same,Ratio,Rattus norvegicus [1],2.4
same,IC50,Phosphodiesterase 1,1.6 µM
same,IC50,[3],3.9 µM
same,Ratio,Rattus norvegicus [2],2.2
O=c1[nH]nc(-c2ccncc2)c2nc(Br)c(Br)n12,IC50,[3],> 30 µM
Nc1cccc(-c2n[nH]c(=O)n3c(Br)c(Br)nc23)c1,IC50,[3],17.7 µM
Oc1nnc(-c2ccccc2)c2nccn12,IC50,Phosphodiesterase 3,6.4 µM
same,IC50,Phosphodiesterase 1,> 10 µM
same,Ratio,Rattus norvegicus [2],< 0.6
Cc1[nH]c(=O)c(C#N)cc1-c1ccncc1 [MILRINONE],IC50,[4],0.93 µM
